# In patent US11591341B2 (ALIGOS THERAPEUTICS, INC., priority 2019, dated 2023):
# System: HBV
# Assay: HBV-DNA Antiviral Assay Using HepG2.2.15 Cells (extracellular HBV DNA by qPCR)
# Type: cell-based
# Conditions: Hepatitis B virus, 168 h; HBV DNA inhibition, HepG2.2.15 cells, extracellular HBV DNA by qPCR on day 7; read-out: EC50
# Method: The following assay procedure describes the HBV antiviral assay. This assay uses HepG2.2.15 cells, which have been transfected with HBV genome, and extracellular HBV DNA quantification as endpoint. Cell viability is assessed in parallel by measuring the intracellular ATP content using the CellTiter-Glo© reagent from Promega.
# On day 0, HepG2.2.15 cells were seeded in 96-well plates at a density of 6.0×10^4 cells/well (0.1 mL/well). The cells were incubated at 37° C. and 5% CO2.
# On day 1, the test articles were diluted and added to cell culture wells (8 concentrations, 4-fold dilution, in duplicate). GLS4, Tenofovir and Sorafenib were used as reference compounds. 100 μL of culture medium containing the compounds was added to the plate, and the final total volume per well was 200 μL. The final concentration of DMSO in the culture medium was 0.5%. The plate map of compound treatment is shown below. The cells were cultured at 37° C. and 5% CO2 for 3 days.
# On day 4, the plates were refreshed with culture media with compounds.
# On day 7, cell viability was assessed using the CellTiter-Glo, and the cell culture supernatants were collected for determination of HBV DNA by qPCR.
# Extracellular DNA was isolated with QIAamp 96 DNA Blood Kit per the manufacturer's manual. HBV DNA was then quantified by qPCR with HBV specific primers and probes as specified in Table 1 using the FastStart Universal MasterMix from Roche on an ABI-7900HT. The PCR cycle program consisted of 95° C. for 10 min, followed by 40 cycles at 95° C. for 15 sec and 60° C. for 1 min.
# A DNA standard was prepared by dilution of the pAAV2 HBV1.3 plasmid with concentrations ranging from 10 to 1×10^7 copies/μL and used to generate a standard curve by plotting Ct value vs. the concentration of the HBV plasmid DNA standard. The quantity of HBV DNA in each sample was determined by interpolating from the standard curve.
# Cell viability was calculated as follows: % Cell viability=(luminescence value of test sample−average luminescence value of blank)/(average luminescence value of 0.5% DMSO control−average luminescence of blank)×100%. HBV DNA inhibition was calculated as follows: 100-(HBV DNA copy number of test sample−HBV DNA copy number of ETV)/HBV DNA copy number of 0.5% DMSO control−HBV DNA copy number of ETV)×100%. The CC50, EC50 and EC90 values were determined by dose-response curves fitted by GraphPad Prism using “log (agonist) vs. response—Variable slope”.
row,Structure (SMILES),EC50
1,"COc1ccc(CNC(=O)c2c3n(c(=O)n2-c2ccccc2)CCN(C(=O)Nc2ccc(F)c(Cl)c2)C3)cc1 [Example 11, N^7-(3-chloro-4-fluorophenyl)-N1-[(4-methoxyphenyl)methyl]-3-oxo-2-phenyl-2H,3H,5H,6H,7H,8H-imidazo[1,5-a]pyrazine-1,7-dicarboxamide]",100 to 500 nM
2,"C[C@@H]1Cn2c(c(C(=O)NCc3ccccc3-c3ncccn3)n(-c3ccc(-n4cccn4)cc3)c2=O)CN1C(=O)c1ccc(Br)c(C#N)c1 (stereo in doubt) [Example 470, rac-(6R)-7-(4-bromo-3-cyano-benzoyl)-6-methyl-3-oxo-2-(4-pyrazol-1-ylphenyl)-N-[(2-pyrimidinn-2-ylphenyl)methyl]-6,8-dihydro-5H-imidazo[1,5-a]yrazine-1-carboxamide]",100 to 500 nM
3,"O=C(NCc1ccccc1-c1ncccc1F)c1c2n(c(=O)n1-c1ccc(OC3CC3)cc1)CCN(C(=O)c1ccc(Br)c(Cl)c1)C2 [Example 465, 7-(4-bromo-3-chloro-benzoyl)-2-[4-(cyclopropoxy)phenyl]-N-[[2-(3-fluoro-2-pyridyl)phenyl)methyl]-3-oxo-6,8-dihydro-5H-imidazo[1,5-a]pyrazine-1-carboxamide]",100 to 500 nM
4,"COc1ccc(CN2CCn3c(c4n(c3=O)CCN(C(=O)Nc3ccc(F)c(Cl)c3)C4)C2=O)cc1 [Example 17, N-(3-chloro-4-fluoro-phenyl)-12-[(4-methoxyphenyl)methyl]-8,13-dioxo-4,7,9,12-tetrazatricyclo[7.4.0.0^2,7]tridec-1-ene-4-carboxamide]",> 5000 nM
5,"COc1ccc(CN2CCn3c(c4n(c3=O)CCN(C(=O)c3ccc(Br)cc3)C4)C2=O)cc1 [Example 20, 12-(4-bromobenzoyl)-4-[(4-methoxyphenyl)methyl]-4,7,9,12-tetrazatricyclo[7.4.0.0^2,7]tridec-1-ene-3,8-dione]",> 5000 nM
6,"O=C(Nc1ccc(F)c(Cl)c1)N1CCn2c(c3n(c2=O)CCN(Cc2ccccc2)C3=O)C1 [Example 16, 12-benzyl-N-(3-chloro-4-fluoro-phenyl)-8,13-dioxo-4,7,9,12-tetrazatricyclo[7.4.0.0^2,7]tridec-1-ene-4-carboxamide]",500 to 5000 nM
7,"C[C@H]1Cn2c(c(C(=O)NCc3ccccc3-c3ncccn3)n(-c3ccc(-n4cccn4)cc3)c2=O)CN1C(=O)c1ccc(Br)c(Cl)c1 (racemic) [Example 469, rac-(6S)-7-(4-bromo-3-chloro-benzoyl)-6-methyl-3-oxo-2-(4-pyrazol-1-ylphenyl)-N-[(2-pyrimidin-2-ylphenyl)methyl]-6,8-dihydro-5H-imidazo[1,5-a]pyrazine-1-carboxamide]",< 100 nM
8,"C[C@@H](NC(=O)c1c2n(c(=O)n1-c1ccc(OC3CC3)cc1)CCN(C(=O)c1ccc(Br)c(Cl)c1)C2)c1ccccc1-n1cncn1 (stereo in doubt) [Example 472, 7-(4-bromo-3-chloro-benozyl)-2-[4-(cyclopropoxy)phenyl]-3-oxo-N-[rac-(1R)-1-[2-(1,2,4-triazol-1-yl)phenyl]ethyl]-6,8-dihydro-5H-imidazo[1,5-a]pyrazine-1-carboxamide]",500 to 5000 nM
9,"CC(C)NC(=O)c1c2n(c(=O)n1-c1ccccc1)CCN(C(=O)Nc1ccc(F)c(Cl)c1)C2 [Example 10, N^7-(3-chloro-4-fluorophenyl)-3-oxo-2-phenyl-N1-(propan-2-yl)-2H,3H,5H,6H,7H,8H-imidazo[1,5-a]pyrazine-1,7-dicarboxamide]",500 to 5000 nM
10,"CN1CCCn2c(c3n(c2=O)CCN(C(=O)c2ccc(Br)c(Cl)c2)C3)C1=O [Example 8, 2-(4-bromo-3-chlorobenzoyl)-11-methyl-1,2,3,4,8,9,10,11-octahydro-6H,12H-pyrazino[1′,2′:3,4]imidazo[1,5-a][1,4]diazepine-6,12-dione]",> 5000 nM
11,"COc1ccc(CNC(=O)c2c3n(c(=O)n2-c2ccccc2)CCN(C(=O)c2ccc(Br)c(Cl)c2)C3)cc1 [Example 13, 7-(4-bromo-3-chlorobenzoyl)-N-[(4-methoxyphenyl)methyl]-3-oxo-2-phenyl-2H,3H,5H,6H,7H,8H-imidazo[1,5-a]pyrazine-1-carboxamide]",500 to 5000 nM
12,"C[C@H](NC(=O)c1c2n(c(=O)n1-c1ccc(OC3CC3)cc1)CCN(C(=O)c1ccc(Br)c(Cl)c1)C2)c1ccccc1-n1cncn1 (stereo in doubt) [Example 473, 7-(4-bromo-3-chloro-benzoyl)-2-[4-(cyclopropoxy)phenyl]-3-oxo-N-[rac-(1S)-1-[2-(1,2,4-triazol-1-yl)phenyl]ethyl]-6,8-dihydro-5H-imidazo[1,5-a]pyrazine-1-carboxamide]",> 5000 nM
13,"COc1ccc(CN2CCn3c(c4n(c3=O)CCN(C(=O)c3ccc(Br)c(F)c3)C4)C2=O)cc1 [Example 18, 12-(4-bromo-3-fluoro-benzoyl)-4-[(4-methoxyphenyl)methyl]-4,7,9,12-tetrazatricyclo[7.4.0.0^2,7]tridec-1-ene-3,8-dione]",> 5000 nM
14,"O=C1NCCCn2c1c1n(c2=O)CCN(C(=O)c2ccc(Br)c(Cl)c2)C1 [Example 7, 2-(4-bromo-3-chlorobenzoyl)-1,2,3,4,8,9,10,11-octahydro-6H,12H-pyrazino[1′,2′:3,4]imidazo[1,5-a][1,4]diazepine-6,12-dione]",> 5000 nM
15,"CN1CCCn2c(c3n(c2=O)CCN(C(=O)Nc2ccc(F)c(Cl)c2)C3)C1=O [Example 2, N-(3-chloro-4-fluorophenyl)-11-methyl-6,12-dioxo-1,3,4,8,9,10,11,12-octahydro-2H,6H-pyrazino[1′,2′:3,4]imidazo[1,5-a][1,4]diazepine-2-carboxamide]",500 to 5000 nM
16,"O=C1NCCCn2c1c1n(c2=O)CCN(C(=O)c2ccc(Br)c(F)c2)C1 [Example 6, 2-(4-bromo-3-fluorobenzoyl)-1,2,3,4,8,9,10,11-octahydro-6H,12H-pyrazino[1′,2′:3,4]imidazo[1,5-a][1,4]diazepine-6,12-dione]",> 5000 nM
17,"C[C@H]1Cn2c(c(C(=O)NCc3ccccc3-c3ncccn3)n(-c3ccc(-n4cccn4)cc3)c2=O)CN1C(=O)c1ccc(Br)c(C#N)c1 (stereo in doubt) [Example 471, rac-(6S)-7-(4-bromo-3-cyano-benzoyl)-6-methyl-3-oxo-2-(4-pyrazol-1-ylphenyl)-N-[(2-pyrimidin-2-ylphenyl)methyl]-6,8-dihydro-5H-imidazo[1,5-a]pyrazine-1-carboxamide]",500 to 5000 nM
18,"COc1ccc(CNC(=O)c2c3n(c(=O)n2Cc2ccccc2)CCN(C(=O)c2ccc(Br)c(Cl)c2)C3)cc1 [Example 14, 2-benzyl-7-(4-bromo-3-chlorobenzoyl)-N-[(4-methoxyphenyl)methyl]-3-oxo-2H,3H,5H,6H,7H,8H-imidazo[1,5-a]pyrazine-1-carboxamide]",> 5000 nM
19,"CC(C)NC(=O)c1c2n(c(=O)n1-c1ccccc1)CCN(C(=O)c1ccc(Br)c(Cl)c1)C2 [Example 12, 7-(4-bromo-3-chlorobenzoyl)-3-oxo-2-phenyl-N-(propan-2-yl)-2H,3H,5H,6H,7H,8H-imidazo[1,5-a]pyrazine-1-carboxamide]",> 5000 nM

# Same assay, conditions: Hepatitis B virus, HepG2.2.15, 168 h
row,Structure (SMILES),EC50
1,"O=C(Nc1ccc(F)c(Cl)c1)N1CCn2c(c3n(c2=O)CCCN(Cc2ccccc2)C3=O)C1 [Example 3, 11-benzyl-N-(3-chloro-4-fluorophenyl)-6,12-dioxo-1,3,4,8,9,10,11,12-octahydro-2H,6H-pyrazino[1′,2′:3,4]imidazo[1,5-a][1,4]diazepine-2-carboxamide]",100 to 500 nM
